Columns and labels:
[1] = molecular target: T1, CSF1R kinase (recombinant N-terminal GST-CSF1R, residues L534-C972) (Homo sapiens, UniProt P07333); test: CSF1R Kinase-Glo assay; format: biochemical; settings: 40 μM ATP, 30° C. 180 min, read-out: Enzymatic Assay CSF1R enzyme IC50
T1 construct: Recombinant N-terminal GST-CSF1R (CSF1R residues L534-C972) containing the CSFIR kinase domain; made in house; host or cells: Sf9 insect cells
T1 sequence (P07333 534-972): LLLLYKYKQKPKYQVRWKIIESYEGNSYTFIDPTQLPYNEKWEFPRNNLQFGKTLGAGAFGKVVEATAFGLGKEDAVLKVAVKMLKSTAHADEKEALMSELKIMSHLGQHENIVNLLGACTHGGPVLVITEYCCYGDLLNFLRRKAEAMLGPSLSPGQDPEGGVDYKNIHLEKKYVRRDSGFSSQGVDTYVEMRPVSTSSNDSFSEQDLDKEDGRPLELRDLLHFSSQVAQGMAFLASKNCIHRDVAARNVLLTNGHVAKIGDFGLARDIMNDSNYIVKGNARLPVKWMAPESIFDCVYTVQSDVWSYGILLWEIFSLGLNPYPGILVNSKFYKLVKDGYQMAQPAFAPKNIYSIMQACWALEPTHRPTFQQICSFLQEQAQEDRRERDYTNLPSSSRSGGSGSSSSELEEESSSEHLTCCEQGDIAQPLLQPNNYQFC
Procedure: A study was conducted to test certain compounds described in EXAMPLE 1 in inhibiting CSF1R kinase activity.
Activity of CSF1R kinase was determined using a CSF1R Kinase-Glo assay. Recombinant N-terminal GST-CSF1R (CSF1R residues L534-C972) containing the CSFIR kinase domain was expressed in Sf9 insect cells and purified. The kinase assay was carried out in 96-well plates at 30° C. for 180 min with the tested compounds in a final volume of 50 μl including the following components: 25 mM Tris-HCl pH 7.4, 4 mM MnCl2, 10 mM MgCl2, 0.01% BSA, 0.5 mM NA3VO4, 0.02% Triton X-100, 40 μM ATP, 2 mM DTT and 20 μM poly(Glu,Tyr) 4:1 peptide, and 600 ng recombinant GST-CSF1R. Following incubation, 50 μl Kinase-Glo Plus Reagent (Promega, Madison, WI, USA) was added and the mixture was incubated at 25° C. for 20 min. A 70-μL aliquot of each reaction mixture was transferred to a black microtiter plate and luminescence was measured on Wallac Vector 1420 multilabel counter (PerkinElmer, Shelton, CT, USA). Percentage inhibition values were obtained by comparison of reaction rate with the rates in control wells (i.e., in the absence of test compound). IC50 values were calculated from a series of percentage inhibition values determined at a range of test compound concentrations using GraphPad Prism version 6 software (GraphPad, San Diego, CA, USA).

M-NFS-60 cells = test: MTS cell viability assay, M-NFS-60; format: cell-based; settings: 72 h, read-out: Cellular Proliferation Assay M-NFS-60 (nM) GI50
Procedure: (§1) Studies were conducted to evaluate […] anticancer activity of certain compounds described in EXAMPLE 1 using 3-(4,5-dimethylthiazol-2-yl)-5-(3-carboxymethoxyphenyl)-2-(4-sulfophenyl)-2H-tetrazolium) (MTS) cell viability assays. Results from these studies are shown in Table 2 below (see columns 3 and 4).
(§2) The cell lines M-NFS-60 (ATCC® CRL-1838™) and BaF3-CSF1R-1600 were obtained from American Type Culture Collection (ATCC, Manassas, VA, USA). The stable BaF3-CSF1R-1600 cell line expresses ETV6-CSF1R fusion protein consisting of N-terminal ETS-variant gene 6 protein (ETV6 residues M1-G337) and CSF1R tyrosine kinase (CSF1R residues L533-C972). The M-NSF-60 and BaF3-CSF1R-1600 cells were cultured in RPMI1640 medium supplemented with 10% fetal bovine serum, 0.05 mM 2-ME, 10 U/ml penicillin, and 10 µg/ml streptomycin at 37° C. and 5% CO2.
(§3) M-NFS-60 and BaF3-CSF1R-1600 cells were seeded in 96-well plates at a density of 10000 cells/100 μl and 8000 cells/100 μl per well, respectively, for 16 h and treated with vehicle or various concentrations of test compounds in medium for 72 h. Viable cells were quantified using the MTS method (Promega, Madison, WI, USA) according to manufacturer's recommended protocol. The results were determined by measuring absorbance at 490 nm using a plate reader (Victor 2). The GI50 value was defined as the amount of compound that caused 50% reduction in cell viability in comparison with DMSO-treated (vehicle) control and was calculated using Prism GraphPad Prism version 6 software (GraphPad).

[2] = test system: BaF3-CSF1R-1600 cells (express ETV6-CSF1R fusion protein); test: MTS cell viability assay, BaF3-CSF1R-1600; format: cell-based; settings: 72 h, read-out: Cellular Proliferation Assay BaF3-CSF1R GI50
Procedure: as §1, §2, §3

Row | IC50 [1] | GI50 [2] | Structure (SMILES) | GI50 (M-NFS-60 cells)
1 | > 1 µM |  | COCCCNC(=O)c1cc(Oc2ccc(NC(=O)Nc3ccccc3)cc2)ccn1 [Compound 72] | 
2 | 0.02 to 0.1 µM |  | CN(C)c1ccc2c(Oc3ccc(NC(=O)NCc4ccc(C(F)(F)F)nc4)c(F)c3)ncnc2c1 [Compound 36] | 100 to 1000 nM
3 | 0.02 to 0.1 µM | 0.1 to 1 µM | O=C(Nc1ccccc1)Nc1ccc(Oc2ncnc3cc(N4CCC[C@@H]4CO)ccc23)cc1 [Compound 1] | 100 to 1000 nM
4 | 0.02 to 0.1 µM |  | COc1ccc(CNC(=O)Nc2ccc(Oc3ncnc4cc(N(C)C)ccc34)cc2)cc1OC [Compound 55] | 
5 | 0.02 to 0.1 µM | 0.1 to 1 µM | O=C(NCc1ccc(C(F)(F)F)nc1)Nc1ccc(Oc2ncnc3cc(N[C@@H]4CCCC[C@H]4O)ccc23)cc1 [Compound 43] | 100 to 1000 nM
6 | 0.02 to 0.1 µM | 0.02 to 0.1 µM | CN(C)c1ccc2c(Oc3ccc(NC(=O)NCc4ccc(C(F)(F)F)cc4)cc3)ncnc2c1 [Compound 56] | 100 to 1000 nM
7 | 0.02 to 0.1 µM | 0.1 to 1 µM | COC[C@H]1CCCN1c1ccc2c(Oc3ccc(NC(=O)Nc4ccccc4)cc3)ncnc2c1 [Compound 10] | 100 to 1000 nM
8 | < 0.02 µM | 0.02 to 0.1 µM | CN(C)CCN(C)c1ccc2c(Oc3ccc(NC(=O)NCc4ccc(C(F)(F)F)nc4)cc3)ncnc2c1 [Compound 44] | 100 to 1000 nM
9 | > 1 µM |  | CN(C)c1ccc2c(Oc3ccc4c(cnn4C(=O)NCc4ccc(C(F)(F)F)nc4)c3)ncnc2c1 [Compound 69] | 
10 | < 0.02 µM | < 0.02 µM | C[C@@H]1CN(c2ccc3c(Oc4ccc(NC(=O)NCc5ccc(C(F)(F)F)nc5)cc4)ncnc3c2)C[C@H](C)N1 [Compound 34, 1-(4-((7-(3,5-Dimethylpiperazin-1-yl)quinazolin-4-yl)oxy)phenyl)-3-((6-(trifluoromethyl)pyridin-3-yl)methyl)urea] | 100 to 1000 nM
11 | 0.02 to 0.1 µM | 0.02 to 0.1 µM | CN(CCO)c1ccc2c(Oc3ccc(NC(=O)NCc4ccc(C(F)(F)F)nc4)cc3)ncnc2c1 [Compound 40] | 100 to 1000 nM
12 | 0.02 to 0.1 µM | 0.02 to 0.1 µM | COc1ccc(Cl)cc1NC(=O)Nc1ccc(Oc2ncnc3cc(N(C)C)ccc23)cc1 [Compound 104] | 100 to 1000 nM
13 | < 0.02 µM | 0.02 to 0.1 µM | COc1cc(Oc2ncnc3cc(N(C)C)ccc23)ccc1NC(=O)NCc1ccc(C(F)(F)F)nc1 [Compound 42] | 100 to 1000 nM
14 | < 0.02 µM | 0.02 to 0.1 µM | CN(C)c1ccc2c(Oc3ccc(NC(=O)NCCc4ccccc4)cc3)ncnc2c1 [Compound 58] | 100 to 1000 nM
15 | 0.02 to 0.1 µM |  | COCCCNc1ccc2c(Oc3ccc(NC(=O)Nc4ccccc4)cc3)ncnc2c1 [Compound 12] | 
16 | 0.1 to 1 µM |  | CN(C)c1ccc2c(Oc3ccc(NC(=O)Nc4ccc(C(F)(F)F)cc4)cc3)ncnc2c1 [Compound 13] | 
17 | 0.1 to 1 µM |  | CN(C)c1ccc2c(Oc3ccc(NC(=O)NCc4ccc(C(F)(F)F)cc4)c(F)c3)ncnc2c1 [Compound 61] | 
18 | < 0.02 µM |  | CN(CCCO)c1ccc2c(Oc3ccc(NC(=O)NCc4ccc(C(F)(F)F)nc4)cc3)ncnc2c1 [Compound 39] | 100 to 1000 nM
19 | 0.02 to 0.1 µM |  | CNc1ccc2c(Oc3ccc(NC(=O)Nc4ccccc4)cc3)ncnc2c1 [Compound 107] | 
20 | 0.02 to 0.1 µM |  | CN(C)c1ccc2c(Oc3ccc(NC(=O)NCc4ccc(C#N)cc4)cc3)ncnc2c1 [Compound 60] | 
21 | < 0.02 µM | 0.1 to 1 µM | CN(C)c1ccc2c(Oc3ccc(NC(=O)NCc4c(F)c(F)c(F)c(F)c4F)cc3)ncnc2c1 [Compound 62] | 
22 | 0.02 to 0.1 µM |  | COC[C@@H]1CCCN1c1ccc2c(Oc3ccc(NC(=O)Nc4ccccc4)cc3)ncnc2c1 [Compound 6] | 
23 | 0.1 to 1 µM |  | O=C(Nc1ccccc1)Nc1ccc(Oc2ncnc3cc(F)ccc23)cc1 [Compound 8] | 
24 | > 1 µM |  | Cc1cc(Oc2ncnc3cc(N(C)C)ccc23)c(C)cc1NC(=O)NCc1ccc(C(F)(F)F)nc1 [Compound 35] | 

Row | IC50 [1] | GI50 [2] | Structure (SMILES) | GI50 (M-NFS-60 cells)
25 | 0.1 to 1 µM |  | CN(C)c1ccc2c(Oc3ccc(NC(=S)Nc4ccccc4)cc3)ncnc2c1 [Compound 22] | 
26 | 0.1 to 1 µM |  | CN(C)c1ccc2c(Nc3ccc(NC(=O)Nc4ccccc4)cc3)ncnc2c1 [Compound 71] | 
27 | 0.02 to 0.1 µM |  | CN(C)c1ccc2c(Oc3ccc(NC(=O)NCC4CCCCC4)cc3)ncnc2c1 [Compound 50] | 
28 | 0.02 to 0.1 µM |  | O=C(NCc1ccc(C(F)(F)F)nc1)Nc1ccc(Oc2ncnc3[nH]ccc23)cc1 [Compound 93] | 
29 | 0.1 to 1 µM |  | CN(C)c1ccc2c(Oc3ccc(NC(=O)NCc4cccnc4)cc3)ncnc2c1 [Compound 54] | 
30 | > 1 µM |  | COC(C)(C)CNC(=O)Nc1ccc(Oc2ncnc3cc(N(C)C)ccc23)cc1 [Compound 87] | 
31 | > 1 µM |  | O=C(Nc1ccccc1)Nc1ccc(Oc2ncnc3cc(Br)ccc23)cc1 [Compound 7] | 
32 | 0.02 to 0.1 µM | 0.1 to 1 µM | CCOc1cc2ncnc(Oc3ccc(NC(=O)NCc4ccc(C(F)(F)F)nc4)cc3)c2cc1F [Compound 41] | 
33 | 0.1 to 1 µM |  | CN(C)c1ccc2c(Oc3ccc(NC(=O)Nc4cccc(C(F)(F)F)c4)cc3)ncnc2c1 [Compound 53] | 
34 | 0.02 to 0.1 µM |  | CN(C)c1ccc2c(Oc3ccc(NC(=O)NCc4ccc(C(F)(F)F)nc4)cc3)ccnc2c1 [Compound 73] | 
35 | 0.1 to 1 µM |  | O=C(NCc1ccc(C(F)(F)F)nc1)Nc1ccc(Oc2ccnc(C(=O)NCCCN3CCOCC3)c2)cc1 [Compound 77] | 
36 | 0.1 to 1 µM |  | CN(C)c1ccc2c(Oc3cnc4c(ccn4C(=O)NCc4ccc(C(F)(F)F)nc4)c3)ncnc2c1 [Compound 83] | 
37 | > 1 µM |  | CN(C)c1ccc2c(Oc3ccc(NC(=O)NCc4ccc(C(F)(F)F)nc4)cc3)c(C#N)cnc2c1 [Compound 75] | 
38 | 0.1 to 1 µM |  | CN(C)c1ccc2c(Oc3ccc(NC(=O)Nc4cccc5ccccc45)cc3)ncnc2c1 [Compound 52] | 
39 | > 1 µM |  | Cc1cc(Oc2ncnc3cc(N(C)C)ccc23)ccc1NC(=O)NCc1ccc(C(F)(F)F)nc1 [Compound 38] | 
40 | 0.1 to 1 µM |  | CN(C)c1ccc2c(Oc3ccc4c(ccn4C(=O)NCc4ccc(C(F)(F)F)nc4)n3)ncnc2c1 [Compound 89] | 
41 | > 1 µM |  | CN(C)c1ccc2c(Oc3ccc(N(C)C(=O)NCc4ccc(C(F)(F)F)nc4)cc3)ncnc2c1 [Compound 47] | 
42 | 0.1 to 1 µM |  | CN(C)c1ccc2c(Oc3ccc(NC(=O)NCC(C)(C)C)cc3)ncnc2c1 [Compound 90] | 
43 | 0.1 to 1 µM |  | CN(C)c1ccc2c(Oc3ccc(NC(=O)NCc4ccn(C)n4)cc3)ncnc2c1 [Compound 84] | 
44 | 0.02 to 0.1 µM |  | O=C(Nc1ccccc1)Nc1ccc(Oc2ncnc3cc(N[C@@H]4CCCC[C@H]4O)ccc23)cc1 [Compound 5] | 100 to 1000 nM
45 | 0.02 to 0.1 µM |  | Cn1cc(-c2ccc3c(Oc4ccc(NC(=O)NCc5ccc(C(F)(F)F)nc5)cc4)ncnc3c2)cn1 [Compound 85] | 
46 | 0.1 to 1 µM |  | CCc1cc(Oc2ncnc3cc(N(C)C)ccc23)ccc1NC(=O)NCc1ccc(C(F)(F)F)nc1 [Compound 29] | 
47 | > 1 µM |  | COc1ccc(CNC(=O)Nc2ccc(Oc3ncnc4cc(N(C)C)ccc34)cc2C)cc1 [Compound 64] | 
